Values quoted from earlier work, collected in patent US20230233572A1, “OPHTHALMIC COMPOSITIONS COMPRISING A COMBINATION OF FLUOROQUINOLONE ANTIBACTERIAL AGENT AND AN ANTI-INFLAMMATORY AGENT” (priority 2020, published 2023).

Test system: corneal surface of rabbit eyes
Conditions: in vivo

## CC(O)COC[C@H]1O[C@@H]2O[C@H]3[C@H](O)[C@@H](O)[C@@H](O[C@H]4[C@H](O)[C@@H](O)[C@@H](O[C@H]5[C@H](O)[C@@H](O)[C@@H](O[C@H]6[C@H](O)[C@@H](O)[C@@H](O[C@H]7[C@H](O)[C@@H](O)[C@@H](O[C@H]8[C@H](O)[C@@H](O)[C@@H](O[C@H]1[C@H](O)[C@H]2O)O[C@@H]8COCC(C)O)O[C@@H]7COCC(C)O)O[C@@H]6COCC(C)O)O[C@@H]5COCC(C)O)O[C@@H]4COCC(C)O)O[C@@H]3COCC(C)O (stereo partly drawn) [HP-β-CD, hydroxypropyl-β-cyclodextrin]
  Tolerance by the corneal surface: well tolerated
  Toxicity or irritation in rabbit eyes: not to be toxic or irritating
